pKi: −log10 of the molar value.
Target: T1, hCA IX (Homo sapiens, UniProt Q16790)
T1 construct: gene CA9
Experiment: stopped-flow CO2 hydration
Assay type: biochemical
Excerpt: stopped-flow CO2 hydration on hCA IX

pKi | Structure (SMILES)
7.51 | CCN(CC)CC(=O)N(CCc1ccc(S(N)(=O)=O)cc1)Cc1ccccc1 [compound 18, 18]
6.93 | CCN(CC(=O)N(CCc1ccc(S(N)(=O)=O)cc1)Cc1ccccc1)Cc1ccccc1 [compound 19, 19]
6.63 | NS(=O)(=O)c1ccc(CCN(Cc2ccccc2)C(=O)CN(Cc2ccccc2)Cc2ccccc2)cc1 [compound 20, 20]
7.31 | CCCCCN(CCCCC)CC(=O)N(CCc1ccc(S(N)(=O)=O)cc1)Cc1ccccc1 [compound 21, 21]
6.91 | CCCCCCN(CCCCCC)CC(=O)N(CCc1ccc(S(N)(=O)=O)cc1)Cc1ccccc1 [compound 22, 22]
6.57 | CCCCCCCCN(CCCCCCCC)CC(=O)N(CCc1ccc(S(N)(=O)=O)cc1)Cc1ccccc1 [compound 23, 23]
7.51 | CCN(CC)CCC(=O)N(CCc1ccc(S(N)(=O)=O)cc1)Cc1ccccc1 [compound 24, 24]
6.78 | CCN(CCC(=O)N(CCc1ccc(S(N)(=O)=O)cc1)Cc1ccccc1)Cc1ccccc1 [compound 25, 25]
6.97 | NS(=O)(=O)c1ccc(CCN(Cc2ccccc2)C(=O)CCN(Cc2ccccc2)Cc2ccccc2)cc1 [compound 26, 26]
6.87 | CCCCCN(CCCCC)CCC(=O)N(CCc1ccc(S(N)(=O)=O)cc1)Cc1ccccc1 [compound 27, 27]
7.03 | CCCCCCN(CCCCCC)CCC(=O)N(CCc1ccc(S(N)(=O)=O)cc1)Cc1ccccc1 [compound 28, 28]
6.83 | CCCCCCCCN(CCCCCCCC)CCC(=O)N(CCc1ccc(S(N)(=O)=O)cc1)Cc1ccccc1 [compound 29, 29]
7.37 | CCCCCCN(CCCCCC)CCC(=O)N(CCc1ccccc1)CCc1ccc(S(N)(=O)=O)cc1 [compound 30, 30]
6.53 | CCCCCCN(CCCCCC)CC(=O)N(CCc1ccc(S(N)(=O)=O)cc1)Cc1ccc2ccccc2c1 [compound 32, 32]
6.81 | CCCCCCN(CCCCCC)CC(=O)N(CCC#N)CCc1ccc(S(N)(=O)=O)cc1 [compound 33, 33]
7.49 | N#CCCN(CCc1ccccc1)CC(=O)N(CCc1ccccc1)CCc1ccc(S(N)(=O)=O)cc1 [compound 34, 34]

pKi | Structure (SMILES)
7.02 | N#CCCN(CCc1ccccc1)CC(=O)N(CCc1ccc(S(N)(=O)=O)cc1)Cc1ccco1 [compound 35, 35]
8.52 | N#CCCN(CCc1ccccc1)CC(=O)N(CCc1ccc(S(N)(=O)=O)cc1)Cc1ccc(F)cc1 [compound 36, 36]
6.82 | N#CCCN(CCc1ccccc1)CC(=O)N(CCc1ccc(S(N)(=O)=O)cc1)Cc1ccc2ccccc2c1 [compound 37, 37]
6.70 | N#CCCN(CCc1ccccc1)CC(=O)N(CCc1ccc(S(N)(=O)=O)cc1)Cc1ccc([N+](=O)[O-])cc1 [compound 38, 38]
7.71 | N#CCCN(CCc1ccccc1)CC(=O)N(CCC#N)CCc1ccc(S(N)(=O)=O)cc1 [compound 39, 39]
8.40 | NCCCN(CCc1ccccc1)CC(=O)N(CCc1ccccc1)CCc1ccc(S(N)(=O)=O)cc1 [compound 40, 40]
7.95 | NCCCN(CCc1ccccc1)CC(=O)N(CCc1ccc(S(N)(=O)=O)cc1)Cc1ccco1 [compound 41, 41]
8.32 | NCCCN(CCc1ccccc1)CC(=O)N(CCc1ccc(S(N)(=O)=O)cc1)Cc1ccc(F)cc1 [compound 42, 42]
7.46 | NCCCN(CCc1ccccc1)CC(=O)N(CCc1ccc(S(N)(=O)=O)cc1)Cc1ccc2ccccc2c1 [compound 43, 43]
6.94 | CCCCCCN(CCCCCC)CC(=O)N(CCCN)CCc1ccc(S(N)(=O)=O)cc1 [compound 44, 44]
8.12 | NS(=O)(=O)c1ccc(CCN(CCc2ccccc2)C(=O)CN(CCC(=O)O)CCc2ccccc2)cc1 [compound 45, 45]
8.92 | NS(=O)(=O)c1ccc(CCN(Cc2ccco2)C(=O)CN(CCC(=O)O)CCc2ccccc2)cc1 [compound 46, 46]
7.95 | NS(=O)(=O)c1ccc(CCN(Cc2ccc(F)cc2)C(=O)CN(CCC(=O)O)CCc2ccccc2)cc1 [compound 47, 47]
7.66 | NS(=O)(=O)c1ccc(CCN(Cc2ccc3ccccc3c2)C(=O)CN(CCC(=O)O)CCc2ccccc2)cc1 [compound 48, 48]
7.17 | CCCCCCN(CCCCCC)CC(=O)N(CCC(=O)O)CCc1ccc(S(N)(=O)=O)cc1 [compound 49, 49]
7.21 | CCCCCCCC/C=C\CCCCCCCCNC(=O)CCN(CCc1ccccc1)CC(=O)N(CCc1ccc(S(N)(=O)=O)cc1)Cc1ccco1 [compound 50, 50]
